Assay results published in ChEMBL document CHEMBL5257111, “Ribosome-targeting antibiotics and resistance via ribosomal RNA methylation” (RSC Med Chem, 2023).

How the values were obtained:
[1] = Binding affinity to Enterococcus faecalis ErmAM methyltransferase assessed as inhibition constant
[2] = target: T1, Catechol O-methyltransferase (Homo sapiens, UniProt P21964); assay: Inhibition of S-COMT (unknown origin)
T1 sequence (P21964 whole entry): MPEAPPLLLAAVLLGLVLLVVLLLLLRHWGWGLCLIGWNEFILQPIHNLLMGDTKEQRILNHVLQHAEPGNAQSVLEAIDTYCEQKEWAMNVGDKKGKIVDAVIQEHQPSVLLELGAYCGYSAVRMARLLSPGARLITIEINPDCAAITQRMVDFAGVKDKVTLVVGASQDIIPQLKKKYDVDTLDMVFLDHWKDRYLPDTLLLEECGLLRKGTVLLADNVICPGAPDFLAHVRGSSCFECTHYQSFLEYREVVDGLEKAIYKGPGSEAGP

[3] = target: rRNA adenine N-6-methyltransferase (Bacillus subtilis, UniProt P13956); assay: Inhibition of Bacillus subtilis ErmC' methyltransferase
Sequence of rRNA adenine N-6-methyltransferase (P13956 whole entry): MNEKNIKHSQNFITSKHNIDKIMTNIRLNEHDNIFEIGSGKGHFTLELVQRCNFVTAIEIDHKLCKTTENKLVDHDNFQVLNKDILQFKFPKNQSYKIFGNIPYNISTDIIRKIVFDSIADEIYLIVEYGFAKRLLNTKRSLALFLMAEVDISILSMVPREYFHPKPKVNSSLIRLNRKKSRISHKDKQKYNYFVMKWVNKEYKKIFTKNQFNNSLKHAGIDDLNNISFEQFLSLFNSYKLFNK

Escherichia coli [4] = assay: Antibacterial activity against Escherichia coli ATCC 8730 assessed as bacterial growth inhibition; format: functional
Klebsiella pneumoniae = assay: Antibacterial activity against Klebsiella pneumoniae ATCC 10031 assessed as reduction in microbial growth; format: functional
Citrobacter amalonaticus = assay: Antibacterial activity against Citrobacter amalonaticus assessed as reduction in microbial growth; format: functional
Enterobacter cloacae = assay: Antibacterial activity against Enterobacter cloacae ATCC 29893 assessed as reduction in microbial growth; format: functional
Acinetobacter baumannii = assay: Antibacterial activity against Acinetobacter baumannii assessed as reduction in bacterial growth by broth microdilution method; format: functional
Klebsiella aerogenes = assay: Antibacterial activity against Enterobacter aerogenes ATCC 13048 assessed as reduction in bacterial growth; format: functional
Escherichia coli [5] = assay: Antimicrobial activity against Escherichia coli ATCC 8739 assessed as reduction in bacterial growth; format: functional
Escherichia coli [6] = assay: Antimicrobial activity against Escherichia coli ATCC 25922 assessed as bacterial growth inhibition; format: functional

Work on `Nc1cccc(-c2nc(N)nc(NC3Cc4ccccc4C3)n2)c1` yielded a Ki [1] of 4 µM.

`O=C(Nc1cccc(-c2nc3ccccc3[nH]2)c1)c1ccccc1` gave an IC50 [2] of 26 µM.

`COc1ccc(C(=O)Nc2cccc(-c3nc4ccccc4[nH]3)c2)cc1` gave an IC50 [2] of 73 µM.

`Nc1nc(NC2Cc3ccccc3C2)nc(N2CCC(C(=O)NCCc3c[nH]c4ccccc34)CC2)n1` showed a Ki [1] of 2 µM.

For `Cc1ccc(Sc2cc(C)c(C#N)c(Sc3ccc(C)cc3)n2)cc1`, the IC50 [3] was 180 µM.

For `O=C1c2ccccc2C(=O)N1CN(CCCn1ccnc1)CN1C(=O)c2ccccc2C1=O`, the IC50 [3] was 300 µM.

Compound `O=C(c1c[nH]c(=O)[nH]1)N1CCN(c2ccc(C(F)(F)F)cn2)CC1` has an IC50 [3] of 100 µM.

For `O=C(c1cnc(Nc2ncccn2)s1)N1CCN(c2ccc(C(F)(F)F)cn2)CC1`, the IC50 [3] was 110 µM.

`C(=N\Nc1ncnc2c1nnn2Cc1ccccc1)/c1ccccc1` gave an IC50 [3] of 250 µM.

`Cc1ccc(Nc2ncc(C(=O)N3CCN(c4ccc(C(F)(F)F)cn4)CC3)s2)nc1` gave an IC50 [3] of 116 µM.

In the case of `NCC[C@H](O)C(=O)N[C@@H]1C[C@H](N)[C@@H](O[C@H]2O[C@H](CN)[C@@H](O)[C@H](O)[C@H]2O)[C@H](O)[C@H]1O[C@H]1O[C@H](CO)[C@@H](O)[C@H](N)[C@H]1O` [AMIKACIN], the MIC (Escherichia coli [4]) is reported as > 512 µg/mL, the MIC (Klebsiella pneumoniae) is reported as > 512 µg/mL and the MIC (Citrobacter amalonaticus) is reported as > 512 µg/mL. The MIC (Enterobacter cloacae) was > 512 µg/mL, the MIC (Acinetobacter baumannii) was > 256 µg/mL and the MIC (Klebsiella aerogenes) was > 512 µg/mL.

With `NC[C@@H]1O[C@H](O[C@H]2[C@@H](O)[C@H](O[C@@H]3[C@@H](O)[C@H](N)C[C@H](N)[C@H]3O[C@H]3O[C@H](CN)[C@@H](O)[C@H](O)[C@H]3N)O[C@@H]2CO)[C@H](N)[C@@H](O)[C@@H]1O` [FRAMYCETIN] the MIC (Escherichia coli [5]) was > 256 µg/mL.

In the case of `NC[C@H]1O[C@H](O[C@H]2[C@H](O)[C@@H](O[C@H]3O[C@H](CO)[C@@H](O)[C@H](N)[C@H]3O)[C@H](N)C[C@@H]2N)[C@H](O)[C@@H](O)[C@@H]1O` [KANAMYCIN], the MIC (Escherichia coli [6]) is reported as > 256 µg/mL.

`OC[C@H]1O[C@@H](n2cnc3c(NC4CCCC4)ncnc32)[C@H](O)[C@@H]1O` [N6-CYCLOPENTYLADENOSINE] gave an IC50 [3] of 80 µM.

With `NC[C@H]1O[C@H](O[C@H]2[C@H](O)[C@@H](O[C@H]3O[C@H](CO)[C@@H](O)[C@H](N)[C@H]3O)[C@H](N)C[C@@H]2N)[C@H](N)C[C@@H]1O` [TOBRAMYCIN] the MIC (Escherichia coli [4]) was > 512 µg/mL, the MIC (Klebsiella pneumoniae) was > 512 µg/mL and the MIC (Citrobacter amalonaticus) was > 512 µg/mL. For the same compound, the MIC (Enterobacter cloacae) was > 512 µg/mL and the MIC (Klebsiella aerogenes) was > 512 µg/mL.

In the case of GENTAMICIN, the MIC (Escherichia coli [4]) is reported as > 512 µg/mL, the MIC (Escherichia coli [6]) is reported as > 256 µg/mL and the MIC (Klebsiella pneumoniae) is reported as > 512 µg/mL. The MIC (Citrobacter amalonaticus) was > 512 µg/mL, the MIC (Enterobacter cloacae) was > 512 µg/mL and the MIC (Klebsiella aerogenes) was > 512 µg/mL.
